These compounds were tested on AMPK (assay: AMPK activation, cell based ELISA in Hep G2 cells). Settings: 1 h incubation, DMSO control as 100%.
Description: AMPK Activation Protocol:
AMPK activation potential of the compounds was evaluated using cell based ELISA.
Hepatoma (Hep G2) liver cells were maintained in a T 75 culture flask-containing 25 mM DMEM+10% fetal calf serum. The cells were maintained in a T 75 culture flask-containing medium (DMEM+10% fetal calf serum). On reaching a confluence of 70 to 80%, the cells were seeded in a 96 well plate at a density of 40,000 cells per well in 25 mM DMEM+10% FCS medium. The plates were then incubated at 37° C. with 5% CO2 for 24 hours. Various concentrations of drugs were prepared in DMSO and diluted to required concentration with the medium and incubated at 37° C. with 5% CO2 for 30 min and 1 h for Epicatechin analogs and 11-BHP analogs respectively. Metformin was used as positive control. Cells were fixed with 4% formaldehyde for 30 minutes at room temperature and washed three times with PBS containing 0.1% Triton X-100. Endogenous peroxidase was quenched with 1% H2O2 in PBS-T (0.1% Tween 20) for 30 minutes and washed three times in PBS-T. Cells were blocked with 1% BSA in PBS-T for 1 hour.

In order of falling “% activation pAMPK at 1 nM” value:
1. C[C@]12CCC(=O)C=C1CCC1C2[C@@H](O)C[C@]2(C)/C(=N/O)CCC12 (stereo partly drawn) [Compound 1024, (10R,11S,13S,E)-11-hydroxy-17-(hydroxyimino)-10,13-dimethyl-1,2,6,7,8,9,10,11,12,13,14,15,16,17-tetradecahydro-3H-cyclopenta[a]phenanthren-3-one]  133%
2. C[C@]12C[C@H](O)C3C(CCC4=CC(=O)CC[C@@]43C)C1CCC2C(=O)O (stereo partly drawn) [Compound 1020, (10R,11S,13S)-11-hydroxy-10,13-dimethyl-3-oxo-2,3,6,7,8,9,10,11,12,13,14,15,16,17-tetradecahydro-1H-cyclopenta[a]phenanthrene-17-carboxylic acid]  132%
3. CC(O)C1CCC2C3CC=C4CC5(CC[C@]4(C)C3[C@@H](O)C[C@]12C)OCCO5 (stereo partly drawn) [Compound 1021, (10R,11S,13S)-17-(1-hydroxyethyl)-10,13-dimethyl-1,2,4,7,8,9,10,11,12,13,14,15,16,17-tetradecahydrospiro[cyclopenta[a]phenanthrene-3,2′-[1,3]dioxolan]-11-ol]  129%
4. C[C@]12CC/C(=N/O)C=C1CCC1C2[C@@H](O)C[C@]2(C)/C(=N/O)CCC12 (stereo partly drawn) [Compound 1022, (3Z,10R,11S,13S,17E)-11-hydroxy-10,13-dimethyl-1,6,7,8,9,10,11,12,13,14,15,16-dodecahydro-3H-cyclopenta[a]phenanthrene-3,17(2H)-dione dioxime]  129%
5. C[C@]12CCC(=O)C=C1CCC1C2[C@@H](O)C[C@@]2(C)C1CC[C@]2(O)C(=O)O (stereo partly drawn) [Compound 1023, (10R,11S,13S,17R)-11,17-dihydroxy-10,13-dimethyl-3-oxo-2,3,6,7,8,9,10,11,12,13,14,15,16,17-tetradecahydro-1H-cyclopenta[a]phenanthrene-17-carboxylic acid]  127%
6. CC(=O)[C@H]1CCC2C3CCC4=CC(=O)CC[C@]4(C)C3[C@@H](O)C[C@@]21C (stereo partly drawn) [Compound 1025, (10R,11S,13S,17S)-17-acetyl-11-hydroxy-10,13-dimethyl-1,2,6,7,8,9,10,11,12,13,14,15,16,17-tetradecahydro-3H-cyclopenta[a]phenanthren-3-one]  118%
7. C/C(=N/O)[C@H]1CCC2C3CCC4=C/C(=N\O)CC[C@]4(C)C3[C@@H](O)C[C@@]21C (stereo partly drawn) [Compound 1031, (10R,11S,13S,17S,Z)-11-hydroxy-17-((Z)-1-(hydroxyimino)ethyl)-10,13-dimethyl-1,2,6,7,8,9,10,11,12,13,14,15,16,17-tetradecahydro-3H-cyclopenta[a]phenanthren-3-one oxime]  109%
8. CN(C)C(=O)C1CCC2C3CCC4CC(=O)CC[C@]4(C)C3[C@@H](O)C[C@]12C (stereo partly drawn) [Compound 1033, (10S,11S,13S)-11-hydroxy-N,N,10,13-tetramethyl-3-oxohexadecahydro-1H-cyclopenta[a]phenanthrene-17-carboxamide]  107%
9. C[C@]12CCC(=O)C=C1CCC1C2[C@@H](O)C[C@@]2(C)C1CC[C@@H]2O (stereo partly drawn) [Compound 1018, (10R,11S,13S,17S)-11,17-dihydroxy-10,13-dimethyl-1,2,6,7,8,9,10,11,12,13,14,15,16,17-tetradecahydro-3H-cyclopenta[a]phenanthren-3-one]  106%
10. CC(=O)C1CCC2C3CC=C4CC5(CC[C@]4(C)C3[C@@H](O)C[C@]12C)OCCO5 (stereo partly drawn) [Compound 1029, 1-((10R,11S,13S)-11-hydroxy-10,13-dimethyl-1,2,4,7,8,9,10,11,12,13,14,15,16,17-tetradecahydrospiro[cyclopenta[a]phenan-threne-3,2′-[1,3]dioxolan]-17-yl)ethan-1-one]  105%
11. CN(C)C(=O)C1CCC2C3CCC4=CC(=O)CC[C@]4(C)C3[C@@H](O)C[C@]12C (stereo partly drawn) [Compound 1030, (10R,11S,13S)-11-hydroxy-N,N,10,13-tetramethyl-3-oxo-2,3,6,7,8,9,10,11,12,13,14,15,16,17-tetradecahydro-1H-cyclopenta[a]phenanthrene-17-carboxamide]  105%
12. CC(=O)[C@H]1CCC2C3CC=C4C[C@@H](O)CC[C@]4(C)C3[C@@H](O)C[C@@]21C (stereo partly drawn) [Compound 1016, 1-((3S,10R,11S,13S,17S)-3,11-dihydroxy-10,13-dimethyl-2,3,4,7,8,9,10,11,12,13,14,15,16,17-tetradecahydro-1H-cyclopenta[a]phenanthren-17-yl)ethan-1-one]  104%
13. C[C@]12CCC(=O)CC1CCC1C2[C@@H](O)C[C@]2(C)C(=O)CCC12 (stereo partly drawn) [Compound 1034, (10S,11S,13S)-11-hydroxy-10,13-dimethyltetradecahydro-3H-cyclopenta[a]phenanthrene-3,17(2H)-dione]  104%
14. C[C@]12CCC(=O)C=C1CCC1C2[C@@H](O)C[C@]2(C)C(=O)CCC12 (stereo partly drawn) [Compound 1019, (10R,11S,13S)-11-hydroxy-10,13-dimethyl-1,6,7,8,9,10,11,12,13,14,15,16-dodecahydro-3H-cyclopenta[a]phenanthrene-3,17(2H)-dione]  103%
15. C[C@]12CCC(=O)C=C1CCC1C2[C@@H](O)C[C@@]2(C)C1CC[C@@]21OCC1=O (stereo partly drawn) [Compound 1028, (10R,11S,13S,17R)-11-hydroxy-10,13-dimethyl-1,6,7,8,9,10,11,12,13,14,15,16-dodecahydrospiro[cyclopenta[a]phenanthrene-17,2′-oxetane]-3,3′(2H)-dione]  103%
16. CO[C@H]1CC[C@@]2(C)C(=CCC3C2[C@@H](O)C[C@@]2(C)C3CC[C@@H]2C(C)=O)C1 (stereo partly drawn) [Compound 1038, 1-((3S,10R,11S,13S,17S)-11-hydroxy-3-methoxy-10,13-dimethyl-2,3,4,7,8,9,10,11,12,13,14,15,16,17-tetradecahydro-1H-cyclopenta[a]phenanthren-17-yl)ethan-1-one]  103%
17. CC(=O)[C@H]1CCC2C3CCC4=CC(=O)CC[C@]4(C)C3[C@@](C)(O)C[C@@]21C (stereo partly drawn) [Compound 1035, (10R,11S,13S,17S)-17-acetyl-11-hydroxy-10,11,13-trimethyl-1,2,6,7,8,9,10,11,12,13,14,15,16,17-tetradecahydro-3H-cyclopenta[a]phenanthren-3-one]  102%
18. CC(O)C1CCC2C3CC=C4C[C@@H](O)CC[C@]4(C)C3[C@@H](O)C[C@]12C (stereo partly drawn) [Compound 1036, (3S,10R,11S,13S)-17-(1-hydroxyethyl)-10,13-dimethyl-2,3,4,7,8,9,10,11,12,13,14,15,16,17-tetradecahydro-1H-cyclopenta[a]phenanthrene-3,11-diol]  102%
19. C[C@]12CC[C@H](O)CC1=CCC1C2[C@@H](O)C[C@@]2(C)C1CC[C@@H]2O (stereo partly drawn) [Compound 1017, (3S,10R,11S,13S,17S)-10,13-dimethyl-2,3,4,7,8,9,10,11,12,13,14,15,16,17-tetradecahydro-1H-cyclopenta[a]phenanthrene-3,11,17-triol]  97%
20. CC(O)[C@H]1CC[C@H]2[C@@H]3CCC4=C[C@@H](O)CC[C@]4(C)[C@H]3[C@@H](O)C[C@]12C (stereo partly drawn) [Compound 1037, (3S,8S,9S,10R,11S,13S,14S,17S)-17-(1-hydroxyethyl)-10,13-dimethyl-2,3,6,7,8,9,10,11,12,13,14,15,16,17-tetradecahydro-1H-cyclopenta[a]phenanthrene-3,11-diol]  95%

Reference: US20150376225A1, “NOVEL COMPOUNDS OF 11BETA-HYDROXY-STEROIDS FOR USE IN MITOCHONDRIA BIOGENESIS AND DISEASES ASSOCIATED WITH MITOCHONDRIAL DYSFUNCTION OR DEPLETION” (SPHAERA PHARMA PVTD. LTD., priority 2013, published 2015)
